For the experiment, the target named is T1, Androgen Receptor (Homo sapiens, UniProt P10275, T878A).
T1 construct: the AR gene was modified, using CRISPR/Cas9 editing, so the expressed AR protein included an 11 amino acid HiBiT tag; endogenous in cells; host or cells: clonal LnCaP-derived line, AR gene edited by CRISPR/Cas9
In words: Androgen Receptor Degradation Assay (Nano-Glo HiBiT). Particulars: LNCaP, 18 h, HiBiT-tagged AR in human LnCaP cells, read-out: mean asymptote max. The format is cell-based. The gist of the method: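 LnCaP cells with CRISPR-knocked-in N-terminal HiBiT-tagged AR (10,000/well) treated 18 h at 37 °C with PROTACs over 11 threefold concentrations; lytic HiBiT luminescence normalised to DMSO (0%) and cell-free (100%) controls. Relative DC50 = 4-parameter fit inflection; absolute DC50 = 50% degradation interpolation; Dmax = maximum observed degradation.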

The structures appear in SMILES notation. Structures can show the parent of a compound that is named as a salt.

T1 sequence (P10275 whole entry T878A): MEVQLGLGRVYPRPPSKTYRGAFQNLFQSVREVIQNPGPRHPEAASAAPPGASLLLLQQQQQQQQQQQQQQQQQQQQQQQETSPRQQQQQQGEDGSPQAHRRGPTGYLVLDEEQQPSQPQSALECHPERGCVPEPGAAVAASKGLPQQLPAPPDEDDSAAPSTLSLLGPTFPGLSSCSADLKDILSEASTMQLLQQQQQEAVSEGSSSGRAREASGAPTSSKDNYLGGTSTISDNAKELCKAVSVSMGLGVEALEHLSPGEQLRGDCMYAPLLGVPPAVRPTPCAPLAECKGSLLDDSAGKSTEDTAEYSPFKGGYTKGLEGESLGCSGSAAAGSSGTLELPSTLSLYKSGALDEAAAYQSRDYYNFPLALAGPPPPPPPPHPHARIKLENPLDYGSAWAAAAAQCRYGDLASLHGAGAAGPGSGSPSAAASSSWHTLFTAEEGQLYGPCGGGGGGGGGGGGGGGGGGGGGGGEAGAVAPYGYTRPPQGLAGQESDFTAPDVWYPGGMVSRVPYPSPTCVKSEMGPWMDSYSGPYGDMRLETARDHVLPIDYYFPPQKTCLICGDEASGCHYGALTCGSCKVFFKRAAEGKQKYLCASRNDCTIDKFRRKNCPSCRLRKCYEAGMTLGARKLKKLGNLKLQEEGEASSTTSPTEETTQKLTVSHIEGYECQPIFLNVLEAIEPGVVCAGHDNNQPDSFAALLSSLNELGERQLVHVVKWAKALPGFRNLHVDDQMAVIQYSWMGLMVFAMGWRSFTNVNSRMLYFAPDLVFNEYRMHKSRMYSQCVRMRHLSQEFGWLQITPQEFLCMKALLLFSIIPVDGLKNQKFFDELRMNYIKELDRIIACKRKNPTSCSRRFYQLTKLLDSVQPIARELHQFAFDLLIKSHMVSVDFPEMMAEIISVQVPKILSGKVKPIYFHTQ
T1 sequence (Q96SW2 whole entry partner): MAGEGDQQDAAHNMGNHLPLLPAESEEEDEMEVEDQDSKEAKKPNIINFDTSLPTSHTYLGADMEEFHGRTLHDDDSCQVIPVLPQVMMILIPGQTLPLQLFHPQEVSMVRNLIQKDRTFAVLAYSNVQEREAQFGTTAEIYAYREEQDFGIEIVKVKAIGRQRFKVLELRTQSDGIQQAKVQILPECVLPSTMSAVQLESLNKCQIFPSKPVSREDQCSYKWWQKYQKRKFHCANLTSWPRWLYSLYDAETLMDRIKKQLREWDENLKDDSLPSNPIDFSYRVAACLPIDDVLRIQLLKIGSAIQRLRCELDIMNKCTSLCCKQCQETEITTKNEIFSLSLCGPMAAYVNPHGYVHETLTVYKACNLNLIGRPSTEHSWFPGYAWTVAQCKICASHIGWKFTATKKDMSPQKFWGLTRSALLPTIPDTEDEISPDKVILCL
T1 sequence (Q16531 whole entry partner): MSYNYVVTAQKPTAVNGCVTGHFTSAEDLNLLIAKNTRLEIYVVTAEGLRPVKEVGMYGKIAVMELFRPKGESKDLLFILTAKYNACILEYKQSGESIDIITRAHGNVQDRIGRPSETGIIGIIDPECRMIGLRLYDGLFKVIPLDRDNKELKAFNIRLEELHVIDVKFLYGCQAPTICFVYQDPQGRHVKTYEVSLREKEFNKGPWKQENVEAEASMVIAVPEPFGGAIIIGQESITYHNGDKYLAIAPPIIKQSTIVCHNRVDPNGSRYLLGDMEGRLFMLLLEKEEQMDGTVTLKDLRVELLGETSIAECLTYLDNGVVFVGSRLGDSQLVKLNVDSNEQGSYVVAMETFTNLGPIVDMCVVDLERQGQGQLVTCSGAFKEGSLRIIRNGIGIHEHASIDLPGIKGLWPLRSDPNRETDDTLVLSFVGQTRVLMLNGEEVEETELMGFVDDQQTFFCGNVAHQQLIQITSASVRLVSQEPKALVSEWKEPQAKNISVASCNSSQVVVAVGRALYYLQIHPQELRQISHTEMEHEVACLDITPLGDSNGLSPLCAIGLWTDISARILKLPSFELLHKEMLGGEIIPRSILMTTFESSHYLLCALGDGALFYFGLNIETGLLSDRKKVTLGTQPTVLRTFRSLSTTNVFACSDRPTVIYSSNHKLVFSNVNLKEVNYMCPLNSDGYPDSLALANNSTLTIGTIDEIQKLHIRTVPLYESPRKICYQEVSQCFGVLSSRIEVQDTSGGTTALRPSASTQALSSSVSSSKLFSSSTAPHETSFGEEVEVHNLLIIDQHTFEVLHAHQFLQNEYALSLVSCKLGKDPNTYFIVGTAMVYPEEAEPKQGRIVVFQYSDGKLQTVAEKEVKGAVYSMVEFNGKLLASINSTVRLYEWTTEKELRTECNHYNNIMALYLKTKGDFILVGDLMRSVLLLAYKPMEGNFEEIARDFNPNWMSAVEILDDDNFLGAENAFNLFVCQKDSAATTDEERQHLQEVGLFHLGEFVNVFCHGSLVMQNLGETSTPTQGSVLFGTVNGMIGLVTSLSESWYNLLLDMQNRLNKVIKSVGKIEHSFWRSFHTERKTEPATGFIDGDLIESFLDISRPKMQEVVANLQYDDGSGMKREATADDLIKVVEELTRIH

For the compound `CC1(C)CC(CN2CCC(n3ncc4c(N5CCC(=O)NC5=O)cccc43)CC2)CN(c2ccc(C(=O)N[C@H]3CC[C@H](Oc4ccc(C#N)c(Cl)c4)CC3)nn2)C1` (stereo partly shown) [EAR223, N-((1r,4r)-4-(3-chloro-4-cyanophenoxy)cyclohexyl)-6-(5-((4-(4-(2,4-dioxotetrahydropyrimidin-1(2H)-yl)-1H-indazol-1-yl)piperidin-1-yl)methyl)-3,3-dimethylpiperidin-1-yl)pyridazine-3-carboxamide], the Dmax is not below 50%. Next, `N#Cc1ccc(O[C@H]2CC[C@H](NC(=O)c3ccc(N4CCC(CN5CCC(n6ccc7c(N8CCC(=O)NC8=O)nccc76)CC5)CC4)nn3)CC2)cc1Cl` [EAR148, N-((1r,4r)-4-(3-Chloro-4-cyanophenoxy)cyclohexyl)-6-(4-((4-(4-(2,4-dioxotetrahydropyrimidin-1(2H)-yl)-1H-pyrrolo[3,2-c]pyridin-1-yl)piperidin-1-yl)methyl)piperidin-1-yl)pyridazine-3-carboxamide]: not below 50%. Take `N#Cc1ccc(O[C@H]2CC[C@H](NC(=O)c3cnc(N4CCC(CN5CCC(n6ncc7c(N8CCC(=O)NC8=O)nccc76)CC5)CC4)cn3)CC2)cc1Cl` [EAR203, N-((1r,4r)-4-(3-Chloro-4-cyanophenoxy)cyclohexyl)-5-(4-((4-(4-(2,4-dioxotetrahydropyrimidin-1(2H)-yl)-1H-pyrazolo[4,3-c]pyridin-1-yl)piperidin-1-yl)methyl)piperidin-1-yl)pyrazine-2-carboxamide hydrochloride]: the Dmax was not below 50%. Next, `N#Cc1ccc(O[C@H]2CC[C@H](NC(=O)c3ccc(N4CCC(CN5CCC(n6ncc7c(N8CCC(=O)NC8=O)cc(Cl)cc76)CC5)CC4)nn3)CC2)cc1Cl` [EAR34, 6-(4-((4-(6-Chloro-4-(2,4-dioxotetrahydropyrimidin-1(2H)-yl)-1H-indazol-1-yl)piperidin-1-yl)methyl)piperidin-1-yl)-N-((1r,4r)-4-(3-chloro-4-cyanophenoxy)cyclohexyl)pyridazine-3-carboxamide hydrochloride]: not below 50%; `N#Cc1ccc(O[C@H]2CC[C@H](NC(=O)c3cnc(N4CCC(CN5CCC(n6ccc7c(N8CCC(=O)NC8=O)nccc76)CC5)CC4)nc3)CC2)cc1Cl` [EAR211, N-((1r,4r)-4-(3-chloro-4-cyanophenoxy)cyclohexyl)-2-(4-((4-(4-(2,4-dioxotetrahydropyrimidin-1(2H)-yl)-1H-pyrrolo[3,2-c]pyridin-1-yl)piperidin-1-yl)methyl)piperidin-1-yl)pyrimidine-5-carboxamide hydrochloride]: not below 50%. Consider `N#Cc1ccc(O[C@H]2CC[C@H](NC(=O)c3cnc(N4CCC(CN5CCC(n6ccc7c(N8CCC(=O)NC8=O)cncc76)CC5)CC4)cn3)CC2)cc1Cl` [AR16, N-((1r,4r)-4-(3-Chloro-4-cyanophenoxy)cyclohexyl)-5-(4-((4-(4-(2,4-dioxotetrahydropyrimidin-1(2H)-yl)-1H-pyrrolo[2,3-c]pyridin-1-yl)piperidin-1-yl)methyl)piperidin-1-yl)pyrazine-2-carboxamide], for which the Dmax was not below 50%. Turning to `CC1(C)C(=O)N(c2ccc(C#N)c(C(F)(F)F)c2)C(=S)N1c1ccc(N2CCC(CCN3CCC(n4ccc5c(N6CCC(=O)NC6=O)cncc54)CC3)CC2)cc1` [EAR100, 4-(3-(4-(4-(2-(4-(4-(2,4-Dioxotetrahydropyrimidin-1(2H)-yl)-1H-pyrrolo[2,3-c]pyridin-1-yl)piperidin-1-yl)ethyl)piperidin-1-yl)phenyl)-4,4-dimethyl-5-oxo-2-thioxoimidazolidin-1-yl)-2-(trifluoromethyl)benzonitrile formate], the Dmax was not below 50%.

As to `N#Cc1ccc(O[C@H]2CC[C@H](NC(=O)c3ccc(N4CCC(CN5CCC(n6ncc7c(N8CCC(=O)NC8=O)cccc76)CC5)CC4)nn3)CC2)cc1C(F)(F)F` [EAR44, N-((1r,4r)-4-(4-Cyano-3-(trifluoromethyl)phenoxy)cyclohexyl)-6-(4-((4-(4-(2,4-dioxotetrahydropyrimidin-1(2H)-yl)-1H-indazol-1-yl)piperidin-1-yl)methyl)piperidin-1-yl)pyridazine-3-carboxamide], the Dmax was not below 50%. For `N#Cc1ccc(O[C@H]2CC[C@H](NC(=O)c3ccc(N4CC5CC(CN6CCC(n7ncc8c(N9CCC(=O)NC9=O)cccc87)CC6)(C5)C4)nn3)CC2)cc1Cl` [EAR219, N-((1r,4r)-4-(3-chloro-4-cyanophenoxy)cyclohexyl)-6-(1-((4-(4-(2,4-dioxotetrahydropyrimidin-1(2H)-yl)-1H-indazol-1-yl)piperidin-1-yl)methyl)-3-azabicyclo[3.1.1]heptan-3-yl)pyridazine-3-carboxamide] the value was not below 50%.

On to `N#Cc1ccc(O[C@H]2CC[C@H](NC(=O)c3ccc(N4CCC(CCN5CCC(n6ccc7c(N8CCC(=O)NC8=O)cccc76)CC5)CC4)nn3)CC2)cc1Cl` [EAR57, N-((1r,4r)-4-(3-Chloro-4-cyanophenoxy)cyclohexyl)-6-(4-(2-(4-(4-(2,4-dioxotetrahydropyrimidin-1(2H)-yl)-1H-indol-1-yl)piperidin-1-yl)ethyl)piperidin-1-yl)pyridazine-3-carboxamide hydrochloride], for which the Dmax is not below 50%. For `CC(C)n1ccc2c(N3CCC(=O)NC3=O)cc(C(=O)N3CCN(CCCCOc4ccc(N5C(=S)N(c6ccc(C#N)c(C(F)(F)F)c6)C(=O)C5(C)C)cc4)CC3)cc21` [EAR92, 4-(3-(4-(4-(4-(4-(2,4-Dioxotetrahydropyrimidin-1(2H)-yl)-1-isopropyl-1H-indole-6-carbonyl)piperazin-1-yl)butoxy)phenyl)-4,4-dimethyl-5-oxo-2-thioxoimidazolidin-1-yl)-2-(trifluoromethyl)benzonitrile] the value was not below 50%; for `C[C@@H]1CN(c2ccc(C#N)c(Cl)c2)[C@@H](C)CN1C(=O)c1ccc(OCCCCCN2CCC(n3ccc4c(N5CCC(=O)NC5=O)cncc43)CC2)nc1` [EAR165, 2-Chloro-4-((2S,5R)-4-(6-((5-(4-(4-(2,4-dioxotetrahydropyrimidin-1(2H)-yl)-1H-pyrrolo[2,3-c]pyridin-1-yl)piperidin-1-yl)pentyl)oxy)nicotinoyl)-2,5-dimethylpiperazin-1-yl)benzonitrile], not below 50%; for `N#Cc1ccc(O[C@H]2CC[C@H](NC(=O)c3ccc(N4CCC(CN5CCC(n6ccc7c(N8CCC(=O)NC8=O)cncc76)CC5)CC4)nc3)CC2)cc1C(F)(F)F` [AR19, N-((1r,4r)-4-(4-Cyano-3-(trifluoromethyl)phenoxy)cyclohexyl)-6-(4-((4-(4-(2,4-dioxotetrahydropyrimidin-1(2H)-yl)-1H-pyrrolo[2,3-c]pyridin-1-yl)piperidin-1-yl)methyl)piperidin-1-yl)nicotinamide], not below 50%.

Turning to `CC(C)n1ccc2c(N3CCC(=O)NC3=O)cc(C(=O)N3CCCC34CCN(CCCCCCc3ccc(C(=O)N[C@H]5CC[C@H](Oc6ccc(C#N)c(Cl)c6)CC5)cc3)CC4)cc21` [EAR86, N-((1r,4r)-4-(3-Chloro-4-cyanophenoxy)cyclohexyl)-4-(6-(1-(4-(2,4-dioxotetrahydropyrimidin-1(2H)-yl)-1-isopropyl-1H-indole-6-carbonyl)-1,8-diazaspiro[4.5]decan-8-yl)hexyl)benzamide], the Dmax was not below 50%. Next, `N#Cc1ccc(O[C@H]2CC[C@H](NC(=O)c3ccc(N4CCC[C@@H](CN5CCC(n6ccc7c(N8CCC(=O)NC8=O)cccc76)CC5)C4)nn3)CC2)cc1Cl` [EAR143, N-((1r,4R)-4-(3-chloro-4-cyanophenoxy)cyclohexyl)-6-((S)-3-((4-(4-(2,4-dioxotetrahydropyrimidin-1(2H)-yl)-1H-indol-1-yl)piperidin-1-yl)methyl)piperidin-1-yl)pyridazine-3-carboxamide]: not below 50%; `C[C@@H]1CN(C(=O)Nc2ccc(OCCCCN3CCC(n4ccc5c(N6CCC(=O)NC6=O)cccc54)CC3)nc2)[C@@H](C)CN1c1ccc(C#N)c(Cl)c1` [EAR121, (2S,5R)-4-(3-chloro-4-cyanophenyl)-N-(6-(4-(4-(4-(2,4-dioxotetrahydropyrimidin-1(2H)-yl)-1H-indol-1-yl)piperidin-1-yl)butoxy)pyridin-3-yl)-2,5-dimethylpiperazine-1-carboxamide]: not below 50%. Next, `N#Cc1ccc(O[C@H]2CC[C@H](NC(=O)c3ccc(N4CCC(CN5CCC(n6ccc7c(N8CCC(=O)NC8=O)ncnc76)CC5)CC4)cc3)CC2)cc1Cl` [EAR195, N-((1r,4r)-4-(3-chloro-4-cyanophenoxy)cyclohexyl)-4-(4-((4-(4-(2,4-dioxotetrahydropyrimidin-1(2H)-yl)-7H-pyrrolo[2,3-d]pyrimidin-7-yl)piperidin-1-yl)methyl)piperidin-1-yl)benzamide hydrochloride]: not below 50%; `CC1CN(c2ccc(C(=O)N[C@H]3CC[C@H](Oc4ccc(C#N)c(Cl)c4)CC3)nn2)CCC1CN1CCC(n2ncc3c(N4CCC(=O)NC4=O)cccc32)CC1` (stereo partly shown) [EAR234, N-((1r,4r)-4-(3-chloro-4-cyanophenoxy)cyclohexyl)-6-(4-((4-(4-(2,4-dioxotetrahydropyrimidin-1(2H)-yl)-1H-indazol-1-yl)piperidin-1-yl)methyl)-3-methylpiperidin-1-yl)pyridazine-3-carboxamide]: not below 50%. For `N#Cc1ccc(O[C@H]2CC[C@H](NC(=O)c3cnc(N4CCC(CN5CCC(n6ccc7c(N8CCC(=O)NC8=O)ncnc76)CC5)CC4)cn3)CC2)cc1Cl` [EAR196, N-((1r,4r)-4-(3-Chloro-4-cyanophenoxy)cyclohexyl)-5-(4-((4-(4-(2,4-dioxotetrahydropyrimidin-1(2H)-yl)-7H-pyrrolo[2,3-d]pyrimidin-7-yl)piperidin-1-yl)methyl)piperidin-1-yl)pyrazine-2-carboxamide hydrochloride] the value was not below 50%.

For the origin of these results see US20250205344A1, “2,4-DIOXOTETRAHYDROPYRIMIDINYL DERATIVES AS DEGRONS IN PROTACS” (GLAXOSMITHKLINE INTELLECTUAL PROPERTY DEVELOPMENT LIMITED, priority 2022, published 2025).
